Measured values as given in US12343350B2, “Istaroxime-containing intravenous formulation for the treatment of acute heart failure (AHF)” (Windtree Therapeutics, Inc., priority 2019, dated 2025).
Marks after values point to notes of the source that are not given here.

System: STZ diabetic rats
Assay: Haemodynamics in streptozotocin (STZ) diabetic rats (echocardiography 2M-Doppler-Tissue Doppler)
Format: in vivo, rat
Experimental: Sprague Dawley male rats (150-175 g) were made diabetic by a single injection into the tail vein of a solution of streptozotocin (STZ, 50 mg/kg, Sigma-Aldrich), freshly prepared in 0.1 M sodium citrate buffer, pH 4.5. Control rats received citrate buffer. Fasting glycaemia was measured after 1 week and rats with values greater than 400 mg/dl were considered diabetic.
Eight to nine weeks after STZ injection, rats were submitted to transthoracic echocardiographic and Doppler evaluation performed under pentobarbital anesthesia. Two-dimensionally guided M-mode recordings were used to obtain short-axis measurements of left ventricular end-diastolic diameter (LVEDD), left ventricular end-systolic diameter (LVESD), posterior (PW) and septal (SW) diastolic wall thickness according to the American Society of Echocardiography guidelines (Lang R M et al., Eur J Echocardiography 2006; 7:79-108). Fractional shortening was calculated as FS=(LVEDD-LVESD)/LVEDD. Relative wall thickness was calculated as PWTd+IVSTd/LVEDD.
Mitral inflow was measured by pulsed Doppler at the tips of mitral leaflets from an apical 4-chamber view to obtain early and late filling velocities (E, A) and deceleration time of early filling velocity (DT). The deceleration slope was calculated as E/DT ratio. The mitral deceleration index was calculated as DT/E ratio.
Tissue Doppler Imaging (TDI) was evaluated from the apical 4-chamber view to record septal mitral annular movements, i.e., peak myocardial systolic (s′) and early and late diastolic velocity (e′ and a′).
The compound PST 3093 was iv administered to STZ injected rats at the dose of 0.22 mg/kg and echocardiographic parameters were measured after 15 and 30 min from the beginning of iv infusion and 10 min after interruption of infusion.

[1] = after 10 min from STOP infusion

C[C@]12CCC(=NOCC(=O)O)CC1[C@H](O)CC1C2CC[C@]2(C)C(=O)CCC12 (stereo partly drawn) [PST 3093, (E,Z)-[(6-beta-hydroxy-17-oxoandrostan-3-ylidene)amino]oxyacetic acid]
CO, cardiac output (0.22 mg/kg iv, after 15 min): 231.7 ± 64 mL/min
DT, deceleration time of E wave (0.22 mg/kg iv, after 15 min): 40.2 ± 9.54 ms
DT/E, mitral deceleration index (0.22 mg/kg iv, after 15 min): 40.39 ± 15.04* s^2/m
E, E wave, early filling velocity of mitral inflow (0.22 mg/kg iv, after 15 min): 1.048 ± 0.218
E/DT, decelaration slope (0.22 mg/kg iv, after 15 min): 27.51 ± 8.42 m/s^2
E/e′, index of LV filling pressure (0.22 mg/kg iv, after 15 min): 38.61 ± 4.71
HR, heart rate (0.22 mg/kg iv, after 15 min): 271 ± 33 beat/min
SV, stroke volume (0.22 mg/kg iv, after 15 min): 0.85 ± 0.18 ml/beat
e′ TDI, early relaxation velocity (0.22 mg/kg iv, after 15 min): 27.01 ± 3.4 cm/s
CO, cardiac output (0.22 mg/kg iv, after 30 min): 230.6 ± 46.7 mL/min
DT, deceleration time of E wave (0.22 mg/kg iv, after 30 min): 36.6 ± 6.09 ms
DT/E, mitral deceleration index (0.22 mg/kg iv, after 30 min): 35.47 ± 10.19* s^2/m
E, E wave, early filling velocity of mitral inflow (0.22 mg/kg iv, after 30 min): 1.076 ± 0.211
E/DT, decelaration slope (0.22 mg/kg iv, after 30 min): 30.36 ± 8.73 m/s^2
E/e′, index of LV filling pressure (0.22 mg/kg iv, after 30 min): 38.7 ± 4.26
HR, heart rate (0.22 mg/kg iv, after 30 min): 269 ± 29 beat/min
SV, stroke volume (0.22 mg/kg iv, after 30 min): 0.86 ± 0.14 ml/beat
e′ TDI, early relaxation velocity (0.22 mg/kg iv, after 30 min): 27.77 ± 4.27 cm/s
CO, cardiac output [1]: 200.88 ± 51.7 mL/min
DT, deceleration time of E wave [1]: 41.88 ± 7.86 ms
DT/E, mitral deceleration index [1]: 49.08 ± 13.09* s^2/m
E, E wave, early filling velocity of mitral inflow [1]: 0.89 ± 0.19
E/DT, decelaration slope [1]: 22.36 ± 8.89 m/s^2
E/e′, index of LV filling pressure [1]: 39.45 ± 4.18
HR, heart rate [1]: 249 ± 28 beat/min
SV, stroke volume [1]: 0.81 ± 0.17 ml/beat
e′ TDI, early relaxation velocity [1]: 22.48 ± 3.35 cm/s
